# From patent US20260216182A1, “PYRIDAZINE NLRP3 INHIBITOR COMPOUND, PHARMACEUTICAL COMPOSITION, AND PREPARATION METHOD THEREFOR AND USE THEREOF” (CHANGCHUN GENESCIENCE PHARMACEUTICAL CO., LTD., priority 2022, published 2026)
# Tested on: IL-1β
# Test: Zymosan A-induced rat pericarditis model
# Assay type: in vivo, SD rats
# Experimental: Test Example 5 Zymosan A-Induced Rat Pericarditis Model Test
# In this experiment, SD rats were used and 150 μL of a mixture of 50 mg/mL ZymosanA and normal saline was injected into the pericardial cavity to induce a rat pericarditis model and conduct a pharmacodynamic observation experiment. The day of modeling was designated as Day 1. The animals were weighed and randomly divided into groups one day before modeling, namely, G1 normal group, G2 model group, G3 compound 062-10 mg/kg group, G4 compound 062-30 mg/kg group, G5 colchicine-100 μg/kg group, with 7+1* animals in each group (one extra animal was reserved for each group, considering that animals may die during model establishment). After the model was established, oral administration began, once a day, for 7 consecutive days. At the end of the experiment, the animals were euthanized, the muscles were cut open at the third and fourth rib regions to expose the heart, the pericardium was carefully lifted with forceps, and as much pericardial effusion (if any) as possible was extracted with a 1 ml syringe. The pericardial effusion was centrifuged at 5000 rpm at 4° C. for 5 min, and the supernatant was frozen at −80° C. for later detection of IL-1β levels. After the pericardial effusion was collected, the heart was perfused and removed (while ensuring the integrity of the pericardium), fixed with 10% formalin for subsequent pathological examination.
smiles,measurement,setting,value
"CC#Cc1ccc2c(-c3ccc(Cl)cc3O)nnc(NC[C@H](O)CO)c2c1 [Compound 062, (S)-3-((4-(4-chloro-2-hydroxyphenyl)-7-(prop-1-yn-1-yl)phthalazin-1-yl)amino) propan-1,2-diol]",degree of pericardial inflammation,"10 and 30 mg/kg oral once a day, 7 days, FIG. 3",improved the degree of pericardial inflammation
same,production of IL-1β in the pericardium and pericardial effusion,"10 and 30 mg/kg oral once a day, 7 days, FIG. 4",significantly inhibited the production of IL-1β in the pericardium and pericardial effusion
same,effect compared with colchicine,colchicine 100 μg/kg,comparable to that of colchicine
